The text below walks through data of patent EP1134585B1, “Biosensor and method for the monitoring of herbicides” (CONSIGLIO NAZIONALE DELLE RICERCHE, priority 2000, dated 2001).

Test [1] concerns Gly192->Asp. To be noted: cited from earlier work.
Test [2] relates to -Phe216→Ser. The following applies: code T6; cited from earlier work.
The test system of test [3] is Tyr222->Gly. The following applies: code YG222; cited from earlier work.
Test [4] has as its system Ser223->Pro. To be noted: code SP223; cited from earlier work.
Test [5] has as its system Thr226->Ala. The following applies: cited from earlier work.
The subject of test [6] is Thr226->Met. The following applies: cited from earlier work.
Test [7] concerns Gly228->Arg. The following applies: cited from earlier work.
The subject of test [8] is Gly228->Val. To be noted: cited from earlier work.
For test [9], the system named is I1e229→Met. The following applies: R. capsulatus; cited from earlier work.
Test [10] deals with Ile229->Met~.Met. The following applies: code M29; cited from earlier work.
For test [11], the system named is Ile229->Ser. The following applies: cited from earlier work.
Test [12] deals with GluM34->Lys. To be noted: code M6; cited from earlier work.
Test [13] deals with Phe216→Ser ValM263→Phe. To be noted: double mutant Phe216→Ser ValM263→Phe, code T3; cited from earlier work.
The subject of test [14] is Arg217→His Ser223→Ala. The following applies: double mutant Arg217→His Ser223→Ala; cited from earlier work.
Test [15] deals with D1 protein Ala250->Asp (Chlamydomonas reinhardtii, UniProt P07753, A250D). The following applies: cited from earlier work.
For test [16], the target named is D1 protein A1a250→IIe (Chlamydomonas reinhardtii, UniProt P07753, A250I). The following applies: cited from earlier work.
Test [17] concerns the target D1 protein Ala250→Ser Phe255→IIe (Chlamydomonas reinhardtii, UniProt P07753, A250S/F255I). To be noted: cited from earlier work.
For test [18], the system named is D1 protein Ser284->Gly. The following applies: Chenopodium album; cited from earlier work.
The target in test [19] is D1 protein Phe255->Tyr (Chlamydomonas reinhardtii, UniProt P07753, F255Y). To be noted: code Ar207+; cited from earlier work.
For test [20], the target named is D1 protein Phe211→Gly Met214→Gln (Chlamydomonas reinhardtii, UniProt P07753, F211G/M214Q). The following applies: cited from earlier work.
Test [21] has as its system Phe216->Leu. The following applies: cited from earlier work.
In test [22] the test system is Ile229->Thr. To be noted: cited from earlier work.
The test system of test [23] is thylakoids from Amaranthus retroflexus, Wild-type. Briefly: Biosensor fluorescence response (Table D), wild-type biomediator. The test is classed as biochemical. To be noted: herbicide concentration 10^-6 M.
The subject of test [24] is thylakoids from Amaranthus retroflexus, Mutant. The test is classed as biochemical. The following applies: herbicide concentration 10^-6 M.
Test [25] concerns PS II. The following applies: PS II treated with CdCl2, refrigeration at 5°C, flow 0,2-2,0 ml/m.
Excerpt: To further increase the stability of the biomediator the usefulness of a system for the refrigeration of the solution containing herbicide forwarded into the measuring cell experimentally was observed.
In test [26] the target is D1 protein A1a251->Cys (Chlamydomonas reinhardtii, UniProt P07753, A251C). To be noted: cited from earlier work.
Test [27] concerns PhC2,6―Pro. The following applies: cited from earlier work.
Test [28] concerns Tyr222->Phe. To be noted: code T4; cited from earlier work.
Test [29] has as its system I1e228->Leu. To be noted: cited from earlier work.
Test [30] relates to I1e229->Ala. To be noted: cited from earlier work.
Test [31] has as its system monoclonal antibodies. The following applies: ELISA (Schneider et al. 1994); cited from earlier work.
Test [32] relates to Phe216->Thr. To be noted: cited from earlier work.
Test [33] deals with Phe216→Val. The following applies: cited from earlier work.
The test system of test [34] is I1e229->Cys. To be noted: cited from earlier work.
The subject of test [35] is Ile229->Met. To be noted: R. shaeroides; cited from earlier work.
The target of test [36] is D1 protein Lysa)238->Val (Synechocystis sp., UniProt P16033, K238V). To be noted: Lysa)238->Val (Arg in other organisms); cited from earlier work.
Test [37] concerns the target D1 protein Ala250->Arg (Chlamydomonas reinhardtii, UniProt P07753, A250R). To be noted: cited from earlier work.
The target of test [38] is D1 protein Ala250->Asn (Chlamydomonas reinhardtii, UniProt P07753, A250N). To be noted: cited from earlier work.
Test [39] has as its target D1 protein A1a250->Tyr (Chlamydomonas reinhardtii, UniProt P07753, A250Y). To be noted: cited from earlier work.
Test [40] deals with D1 protein Ser264->Ala (Chlamydomonas reinhardtii, UniProt P07753, S264A). The following applies: codes MZ1 MZ3 MZ5; cited from earlier work.

Molecules are shown by their SMILES.

`CCNc1nc(NC(C)(C)C)nc(SC)n1` [Terbutryn]: the “Resistance R/S” value in test [1] was “Terbutryn 300”; in test [2], “Terbutryn >2800”; in [3], “Terbutryn >3000”; in test [4], “Terbutryn >3000”; in test [5], “Terbutryn 1,7”; in test [6], “Terbutryn 1,7”. Besides, the “Resistance R/S” value in [7] is recorded as “Terbutryn 1,3”; in test [8], “Terbutryn 1,5”; in test [9], “Terbutryn 1,9”; in [10] it was “Terbutryn 120”; in test [12], “Terbutryn > 125”; in test [13], “Terbutryn 166”. For the same compound, in test [14], the “Resistance R/S” value is reported as “Terbutryn 222”. The “Supersensitivity R/S” value in [5] is listed as “Terbutryn 0,6(?)”; in test [11] it was “Terbutryn 0,4”; in test [15], “Terbutryn 0,4”; in [16], “Terbutryn 0,5”; in [17], 0,9.
`CC(C)N1C(=O)c2ccccc2NS1(=O)=O` [Bentazon]: the “Supersensitivity R/S” value in test [18] is recorded as “Bentazon 0,5”.
With `Cc1nnc(-c2ccccc2)c(=O)n1N` [Metamitron], the “Supersensitivity R/S” value is “Metamitron 0,3” in test [19] and 0,4 in test [20].
For the compound `CSc1nc(NC(C)C)nc(NC(C)C)n1` [Prometryn], the “Resistance R/S” value in test [21] is “Prometryn 1,4”; in [5] it was “Prometryn 1,4”; in test [6] it was “Prometryn 1,1”; in [7], “Prometryn 1,1”; in [8] it was “Prometryn 1,4”; in test [9] it was “Prometryn 2”. For the same compound, the “Resistance R/S” value in [22] was “Prometryn 1,4”.
Turning to `CCNc1nc(Cl)nc(NCC)n1` [Simazine], the “Area % inhibition Wild-type” value in [23] amounted to 95%. The “Area % inhibition Mutant” value in [24] came out at 14%. In addition, the “sensitivity (concentration)” value in test [25] is given as “lower than nanomolar”.
Consider `COC(=O)Nc1cccc(OC(=O)Nc2cccc(C)c2)c1` [Phenmedipham], for which the “Supersensitivity R/S” value in [26] was 0,8.
With `CNC(=O)Nc1nc2ccccc2s1` [Benzthiazuron], the “Supersensitivity R/S” value in [19] is reported as 0,3.
As for `CCNc1nc(NC(C)C)nc(SC)n1` [Ametryn], in test [23], the “Area % inhibition Wild-type” value is listed as 99%. Besides, the “Area % inhibition Mutant” value in test [24] is given as 21%. For the same compound, the “Resistance R/S” value in [21] is “Ametryn 3,1”; in [27] it was “Ametryn 1,9”; in test [28], “Ametryn 330”; in test [5], “Ametryn 4”; in test [6] it was “Ametryn 2,5”; in test [7], “Ametryn 4”. Also, the “Resistance R/S” value is reported as “Ametryn 5,3” in test [8], “Ametryn 2,5” in test [29], “Ametryn 5,3” in test [9] and “Ametryn 1,9” in test [22].
As to `CNC(=O)N(C)c1nc2ccccc2s1` [Metabenzthiazuron], the “Supersensitivity R/S” value in [19] was “zuron 0,3”.
In the case of `CCC(C)n1c(=O)[nH]c(C)c(Br)c1=O` (stereo not drawn) [Bromacil], in test [19], the “Supersensitivity R/S” value was “Bromacil 0,9”.
As to `c1cnc2c(c1)ccc1cccnc12` [o-Phenanthroline], the “Resistance R/S” value in test [1] is “o-Phenanthroline 3”; in test [2], “o-Phenanthroline 333”; in test [28], “o-Phenanthroline 10”; in test [3] it was “o-Phenanthroline 26”; in test [4] it was “o-Phenanthroline 6,25”; in test [10], “o-Phenanthro me 11”. The “Resistance R/S” value in [11] is recorded as “o-Phenanthroline 1,3”; in [12], “o-Phenanthroline >25”; in test [13] it was “o-Phenathroline 67”; in [14] it was “o-Phenanthroline 5”. Also, in [5], the “Supersensitivity R/S” value is “line 0,03”.
As to `COc1nc(NC(C)C)nc(NC(C)C)n1` [Prometon], the “Resistance R/S” value is on record as “Prometon 1,8” in test [21]; “Prometon 1,8” in test [27]; “Prometon 1,8” in test [5]; “Prometon 1,2” in test [7]; “Prometon 1,3” in test [8]; “Prometron 1,2” in [30]. Moreover, the “Resistance R/S” value in test [9] is recorded as “Prometron 1,2”; in test [22], “Prometon 1,2”.
With `CCNc1nc(Cl)nc(NC(C)C)n1` [Atrazine], in test [23], the “Area % inhibition Wild-type” value amounted to 96%. The “Area % inhibition Mutant” value in test [24] is given as 15%. Besides, the “sensitivity (concentration)” value in test [25] is on record as “lower than nanomolar”. Besides, the sensitivity in test [31] is 100 pM. For the same compound, the “Resistance R/S” value in [1] is listed as “Atrazine 6”; in test [21], “Atrazine 4,2”; in [27], “Atrazine 1,9”; in [32], “Atrazine 3,5”; in [33], “Atrazine 1,8”; in [28] it was “Atrazine >600”. Besides, the “Resistance R/S” value in test [5] is recorded as “Atrazin 3,1”; in [6] it was “Atrazine 3,1”; in [7], “Atrazine 5,4”; in test [8], “Atrazine 4,2”; in test [30], “Atrazine 1,8”; in [34], “Atrazine 2”. In addition, the “Resistance R/S” value in test [29] is “Atrazine 3,5”; in test [9], “Atrazine 5,4”; in test [35], “Atrazine >7”; in [11], “Atrazine 1,8”; in test [22], “Atrazine 3,7”. For the same compound, the “Supersensitivity R/S” value in test [36] is “Atrazine 0,6”; in test [37] it was “Atrazin 0.25”; in test [38], “Atrazine 0,3”; in test [15], “Atrazine 0,25”; in test [16], “Atrazine 0,5”; in [39], “Atrazine 0,4”. Moreover, the “Supersensitivity R/S” value in [26] is “Atrazin 0,8”; in test [17], “Atrazine 0,5”.
`CC(C)Cc1cc([N+](=O)[O-])cc([N+](=O)[O-])c1O` [i-Dinoseb]: the “Supersensitivity R/S” value in [40] is given as “i-Dinoseb 0,7”.
`CNc1nc(NC(C)C)nc(SC)n1` [Desmetryn]: the “Area % inhibition Wild-type” value in test [23] was 92%. Further, in [24], the “Area % inhibition Mutant” value is 10%. Moreover, the “Resistance R/S” value in [28] was “Desmetryn 50”.
